Legend:
[1] = test system: fibrinogen deficient plasma; assay: Thrombelastography in fibrinogen deficient plasma with added fibrinogen; type: biochemical, human
Experimental: Plasma types, purified proteins and compounds. Prothrombin deficient plasma (George King Bio-Medical, Overland Park, Kans.) anticoagulated with sodium citrate was utilized for experimentation concerning the effects of CORM-2 on prothrombin. Purified prothrombin (Enzyme Research Laboratories, South Bend, Ind.) that was 95% pure (10.4 mg/mL, 11.1 U/mg, suspended in 20 mM Tris-HCl in 0.1M NaCl at pH 7.4) was used for experimentation. Fibrinogen deficient plasma (Affinity Biologicals, Inc., Ancaster, Ontario, Canada) anticoagulated with sodium citrate was used in experiments investigating the effects of CORM-2 on fibrinogen. […] CORM-2 and dimethyl sulfoxide (DMSO) were obtained from Sigma-Aldrich, St. Louis, Mo.
Fibrinogen deficient plasma experiments. In these experiments, the final plasma sample mixture volume was 358.6 μL. Sample composition consisted of 260 μL of fibrinogen deficient plasma, 65 μL of pure fibrinogen solution, and dH2O to generate discrete fibrinogen concentrations subsequently described, 3.6 μL of DMSO or CORM-2 in DMSO (final CORM-2 concentration 0 or 100 μM, n=4 per fibrinogen concentration), 10 μL of tissue factor reagent (0.1% final concentration), and 20 μL of 200 mM CaCl2. The fibrinogen concentrations studied were 100, 200, 300, 400, 500, 600, and 800 mg/dL.
Thrombelastographic monitoring. Plasma sample mixtures were placed in a disposable cup in a computer-controlled THROMBELASTOGRAPH® hemostasis system (Model 5000, Haemoscope Corp., Niles, Ill.), with addition of CaCl2 as the last step to initiate clotting. Data were collected until clot strength stabilized. The following previously described variables (Examples 1-3) were determined at 37° C.: Time to maximum rate of thrombus generation (TMRTG): This is the time interval (sec) observed prior to maximum speed of clot growth. […]
Statistical Analyses. […] The difference between the mean values of MRTG or TTG in samples exposed to 0 or 100 μM CORM-2 were determined and expressed as percent difference secondary to CORM-2 exposure in the fibrinogen deficient plasma experiments.

[2] = test system: pooled normal plasma; assay: Dilution-response thrombelastography in plasma diluted with NS or VOL (no tPA); type: biochemical, human
Text: Plasma and volume expanders. Pooled normal plasma (George King Bio-Medical, Overland Park, Kans.) anticoagulated with sodium citrate was utilized for experimentation. […] The volume expanders tested were 0.9% NaCl (Abbott Laboratories, North Chicago, Ill.; also designated as NS) and 6% hydroxylethyl starch (HES) in 0.9% NaCl (VOLUVEN®, average molecular weight 130 kDa, 0.4 degree of substitution, C2:C6 ratio of substitution 11.2; Fresenius Kabi, Bad Homburg, Germany; also referred to as VOL).
Plasma sample composition of dilution-response experiments. The final volume for all subsequently described plasma sample mixtures was 359.6 μL. Sample composition consisted of 326 μL of plasma/volume expander, 10 μL of tissue factor reagent (0.1% final concentration in dH2O; Instrumentation Laboratory, Lexington, Mass.), 3.6 μL of dimethyl sulfoxide (DMSO) or DMSO with CORM-2 (100 μM final concentration; Sigma-Aldrich, St. Louis, Mo.), and 20 μL of 200 mM CaCl2. Tissue factor stock was kept on ice prior to use and was remade every two hours. […] DMSO was added to dry CORM-2 just prior to placement into the plasma mixture. Plasma was diluted 0%, 20%, 30%, 40% or 50% with NS or VOL (n=4 per condition).
Clot Lifespan Model (CLSM) Analyses. Plasma sample mixtures were placed in a disposable cup in a computer-controlled THROMBELASTOGRAPH® hemostasis system (Model 5000, Haemoscope Corp., Niles, Ill.), with addition of CaCl2 as the last step to initiate clotting. In the first series of experiments, no tPA was added, so data were collected until clot strength (maximum amplitude) was stable. In the second series of experiments which in tPA was added, data were collected until clot lysis time occurred. […] Additional elastic modulus-based parameters were determined and the nomenclature used to describe these phenomena is as follows: Time to maximum rate of thrombus generation (TMRTG): This is the time interval (sec) observed prior to maximum speed of clot growth. Maximum rate of thrombus generation (MRTG): This is the maximum velocity of clot growth observed (dynes/cm^2/sec). Total Thrombus Generation (TTG): This is the total area under the velocity curve during clot growth (dynes/cm^2), representing the amount of clot strength generated during clot growth. Time to maximum rate of lysis (TMRL): This is the time interval (sec) measured from the time of maximum strength to the time when the velocity of clot disintegration is maximal. Maximum Rate of Lysis (MRL): This is the maximum velocity of clot disintegration observed (−dynes/cm^2/sec). Area of Clot Lysis (ACL): This is the total area under the velocity curve during clot disintegration (−dynes/cm^2), representing the amount of clot strength lost during clot disintegration. As this model involves complete fibrinolysis, TTG is equivalent to ACL, so ACL was not presented as it provides no additional information.
Statistical Analyses. Data obtained from pooled normal plasma not exposed to tPA were graphically represented with commercially available software (SigmaPlot 11.0, Systat Software, Inc., San Jose, Calif.), and kinetic modeling of thrombelastographic data performed with the same software. Analyses of the effects of hemodilution and CORM-2 on CLSM variables obtained from pooled normal plasma were conducted using Kruskal-Wallis one way analysis of variance with Student-Newman-Keuls post-hoc test. […] These analyses were conducted with the same commercially available software (SigmaPlot 11.0). A P value of <0.05 was considered significant.

[3] = 100 μM vs 0 μM CORM-2, fibrinogen 300 mg/dL
[4] = 20% dilution with VOL + 100 μM CORM-2, no tPA
[5] = 30% dilution with VOL + 100 μM CORM-2, no tPA
[6] = 40% dilution with VOL + 100 μM CORM-2, no tPA
[7] = 50% dilution with VOL + 100 μM CORM-2, no tPA
[8] = undiluted samples, no tPA, 100 μM CORM-2

[C-]#[O+].[C-]#[O+].[C-]#[O+].[C-]#[O+].[C-]#[O+].[C-]#[O+].[Cl][Ru][Cl].[Cl][Ru][Cl] [CORM-2, tricarbonyldichlororuthenium (II) dimer]
TMRTG, range of values ([1]; 100 μM CORM-2, fibrinogen 100-800 mg/dL): 2.83 to 4.00 min
increase in MRTG secondary to CORM-2 exposure [1, 3]: > 80%
increase in TTG secondary to CORM-2 exposure [1, 3]: > 80%
MRTG, % of undiluted samples [2, 4]: 93%
TTG, % of undiluted samples [2, 4]: 76%
MRTG, % of undiluted samples [2, 5]: 67%
TTG, % of undiluted samples [2, 5]: 50%
MRTG, % of undiluted samples [2, 6]: 60%
TTG, % of undiluted samples [2, 6]: 45%
MRTG, % of undiluted samples [2, 7]: 22%
TTG, % of undiluted samples [2, 7]: 17%
increase in MRTG with CORM-2 exposure ([2]; samples diluted 50% with NS, no tPA, 100 μM CORM-2): 12%
MRTG greater than matched diluted samples not exposed to CORM-2 ([2]; samples diluted with NS (except 50%), no tPA, 100 μM CORM-2): 40-50%
increase in MRTG [2, 8]: 75%
increase in TTG [2, 8]: 59%

Source: patent US8697747B2, “Enhancing coagulation or reducing fibrinolysis” (THe UAB Research Foundation, priority 2009, dated 2014)
